# Test system: ulcer
# Assay: Anti-ulcer test (restraint and water immersion ulcer in rats, i.p.)
# Type: in vivo, Male Wistar rats
# Details: Rattus norvegicus, ip, read-out: % Inhibition of Ulcer
# Protocol: The anti-ulcer and anti-edema activity of the compounds was evaluated in efficacy tests described below.
# Male Wistar rats weighing about 150 g on average were not fed for 24 hours before the test. Then a solution or suspension of a predetermined concentration of the test compound in physiological saline was administered to them intraperitoneally. One hour after the administration,each rat was restrained in a net cage and submerged in a water both (21° C.) from the tail to xiphistrenun for 6 hours. Test animals were then killed (by dislocation of the cervical vertebrae), the stomach was removed and incised along the curvatura ventriculi major, and the inside wall of the stomach was pathologically examined under microscopic observation. Rats in which the occurrence of an ulceration was substantially not observed were rated O, while others were rated 0.5, 1, 2 or 3, depending on the severity of the ulcer development. The percent inhibition of ulcer was calculated by the following formula: [formula]
row,SMILES,inhibition in vivo at 50 mg/kg
1,CC(C)CC(NC(=O)C(O)C1OC(=O)CC1NC(=O)C1CC2C=CC1C2)C1Cc2cccc(O)c2C(=O)O1 (centres unmarked) [IIIa-1-71],66%

# Same assay, conditions: Rattus norvegicus, ip; 25 mg/kg i.p.; read-out: % Inhibition of Ulcer
row,SMILES,inhibition in vivo at 25 mg/kg
1,CC(=O)OC(C)CCNC(=O)CC(N)C(O)C(O)C(=O)NC(CC(C)C)C1Cc2cccc(O)c2C(=O)O1 (centres unmarked) [VII-1-28],94%
2,CCCCCCCCC=CCCCCCCCCNC(=O)CC(N)C(O)C(O)C(=O)NC(CC(C)C)C1Cc2cccc(O)c2C(=O)O1 (centres unmarked) [VII-1-8],89%
3,CC(C)CC(NC(=O)C(O)C(O)C(N)CC(=O)NCc1ccc(C(C)C)cc1)C1Cc2cccc(O)c2C(=O)O1 (centres unmarked) [VII-1-38],94%
4,CCCCOc1cccc2c1C(=O)OC(C(CC(C)C)NC(=O)C(O)C(O)C(CC(=O)NCC)NC(C)=O)C2 (centres unmarked) [VII-32-1],66%
5,CNC(=O)CC(N)C(O)C(O)C(=O)NC(CC(C)C)C1Cc2cccc(O)c2C(=O)O1 (centres unmarked) [VII-1-2],100%
6,CCCNC(CC(N)=O)C(O)C(O)C(=O)NC(CC(C)C)C1Cc2cccc(O)c2C(=O)O1 (centres unmarked) [VII-10-1],94%
7,CCCCNC(=O)CC(N)C(O)C(OCCC)C(=O)NC(CC(C)C)C1Cc2cccc(OCC)c2C(=O)O1 (centres unmarked) [VII-7-4],66%
8,CC(C)CC(NC(=O)C(O)C(O)C(N)CC(=O)NC1CC1)C1Cc2cccc(O)c2C(=O)O1 (centres unmarked) [VII-1-11],94%
9,CCNC(=O)CC(NC(C)=O)C(O)C(OC)C(=O)NC(CC(C)C)C1Cc2cccc(O)c2C(=O)O1 (centres unmarked) [VII-35-1],66%
10,CC(C)CC(NC(=O)C(O)C(O)C(N)CC(=O)NCCN1CCCCC1)C1Cc2cccc(O)c2C(=O)O1 (centres unmarked) [VII-1-46],94%

# Same assay, conditions: Rattus norvegicus, ip; 50 mg/kg i.p.; read-out: % Inhibition of Ulcer
row,SMILES,inhibition in vivo at 50 mg/kg
1,CCC(=O)OC(C(=N)NC(CC(C)C)C1Cc2cccc(O)c2C(=O)O1)C(O)C(N)CC(=O)O (centres unmarked) [Vb-2-1],66%
2,CCOc1cccc2c1C(=O)OC(C(CC(C)C)NC(=O)C(O)C1OC(=O)CC1NC(=O)c1ccc(C)cc1)C2 (centres unmarked) [IIIa-5-37],44%
3,CCOc1cccc2c1C(=O)OC(C(CC(C)C)NC(=O)C(O)C1OC(=O)CC1NC(=O)c1nnnn1C)C2 (centres unmarked) [IIIa-5-27],44%
4,CCOc1cccc2c1C(=O)OC(C(CC(C)C)NC(=O)C(OC(=O)CC)C1OC(=O)CC1NC(=O)C(Cl)(Cl)Cl)C2 (centres unmarked) [IIIa-6-13],33%
5,CC(C)CCOc1cccc2c1C(=O)OC(C(CC(C)C)NC(=O)C(O)C1C=CC(=O)O1)C2 (centres unmarked) [IVa-4-4],44%
6,CSCCNC1CC(=O)OC1C(O)C(=O)NC(CC(C)C)C1Cc2cccc(O)c2C(=O)O1 (centres unmarked) [IIIa-18-38],94%
7,CCCCCCCCCCCCCCCCCC(=O)NC1CC(=O)OC1C(OC(C)=O)C(=O)NC(CC(C)C)C1Cc2cccc(O)c2C(=O)O1 (centres unmarked) [IIIa-2-4],33%
8,CC(=O)OC(C(=O)NC(CC(C)C)C1Cc2cccc(O)c2C(=O)O1)C1OC(=O)CC1NC(=O)C1CCCO1 (centres unmarked) [IIIa-2-6],44%
9,CCOc1cccc2c1C(=O)OC(C(CC(C)C)NC(=O)C(O)C1OC(=O)CC1NC(=O)C=C(C)C)C2 (centres unmarked) [IIIa-5-78],44%
10,CCCCCCCCCCCC(=O)NC1CC(=O)OC1C(O)C(=O)NC(CC(C)C)C1Cc2cccc(O)c2C(=O)O1 (centres unmarked) [IIIa-1-10],66%
11,CCOc1cccc2c1C(=O)OC(C(CC(C)C)NC(=O)C(O)C1OC(=O)CC1NC(=O)C1CCC=CO1)C2 (centres unmarked) [IIIa-5-58],44%
12,CCC(=O)COc1cccc2c1C(=O)OC(C(CC(C)C)NC(=O)C(O)C1C=CC(=O)O1)C2 (centres unmarked) [IVa-4-20],44%
13,CC(C)CC(NC(=O)C(O)C1OC(=O)CC1NC(=O)CCCBr)C1Cc2cccc(O)c2C(=O)O1 (centres unmarked) [IIIa-1-31],66%
14,CC(=O)Oc1cccc2c1C(=O)OC(C(CC(C)C)NC(=O)C(OC(C)=O)C1OC(=O)CC1NC(=O)CC(C)C)C2 (centres unmarked) [IIIa-3-3],33%
15,CC(C)CC(NC(=O)C(O)C1OC(=O)CC1N)C1Cc2cccc(OCCc3ccc4ccccc4c3)c2C(=O)O1 (centres unmarked) [IIIa-13-18],72%
16,CC(=O)Oc1cccc2c1C(=O)OC(C(CC(C)C)NC(=N)C(OC(C)=O)C(O)C(CC(=O)O)NCC1CCCO1)C2 (centres unmarked) [Vb-12-2],56%
17,COC(C(=N)NC(CC(C)C)C1Cc2cccc(O)c2C(=O)O1)C(O)C(N)CC(=O)O (centres unmarked) [Vb-8-1],78%
18,CCCCCCCCCCCCCCCCCCNC1CC(=O)OC1C(O)C(=O)NC(CC(C)C)C1Cc2cccc(OC(C)=O)c2C(=O)O1 (centres unmarked) [IIIa-21-3],66%
19,CC(C)CC(NC(=O)C(O)C1C=CC(=O)O1)C1Cc2cccc(OCC3CCCO3)c2C(=O)O1 (centres unmarked) [IVa-4-14],33%
20,CCOC(C(=N)NC(CC(C)C)C1Cc2cccc(O)c2C(=O)O1)C(O)C(N)CC(=O)O (centres unmarked) [Vb-8-3],78%
21,CC(C)CC(NC(=O)C(O)C1OC(=O)CC1NCc1ccccc1)C1Cc2cccc(O)c2C(=O)O1 (centres unmarked) [IIIa-18-14],89%
22,CCOc1cccc2c1C(=O)OC(C(CC(C)C)NC(=O)C(OC)C1OC(=O)CC1NC(=O)C1CCCO1)C2 (centres unmarked) [IIIa-7-6],22%
23,CCOc1cccc2c1C(=O)OC(C(CC(C)C)NC(=O)C(OC)C1OC(=O)CC1NC(=O)c1ccc(OCCC(C)C)cc1)C2 (centres unmarked) [IIIa-7-9],22%
24,CCOC(=O)CCC(=O)NC1CC(=O)OC1C(O)C(=O)NC(CC(C)C)C1Cc2cccc(OCC)c2C(=O)O1 (centres unmarked) [IIIa-5-36],44%
25,CC(C)CC(NC(=O)C(O)C1C=CC(=O)O1)C1Cc2cccc(OC(=O)C(Cl)(Cl)Cl)c2C(=O)O1 (centres unmarked) [IVa-3-13],44%
26,CNC(=O)C=CC(O)C(O)C(=O)NC(CC(C)C)C1Cc2cccc(O)c2C(=O)O1 (centres unmarked) [VIII-1-1],56%

row,SMILES,inhibition in vivo at 50 mg/kg
1,CCC(=O)OC(C(=O)NC(CC(C)C)C1Cc2cccc(O)c2C(=O)O1)C1OC(=O)CC1NC(=O)C(Cl)(Cl)Cl (centres unmarked) [IIIa-2-12],44%
2,CCCCC(=O)Oc1cccc2c1C(=O)OC(C(CC(C)C)NC(=O)C(O)C1C=CC(=O)O1)C2 (centres unmarked) [IVa-3-4],33%
3,COC(=O)C1CCC(C(=O)NC2CC(=O)OC2C(O)C(=O)NC(CC(C)C)C2Cc3cccc(O)c3C(=O)O2)CC1 (centres unmarked) [IIIa-1-68],66%
4,CCOc1cccc2c1C(=O)OC(C(CC(C)C)NC(=N)C(O)C(O)C(N)CC(=O)O)C2 (centres unmarked) [Vb-5-1],94%
5,CCCCCCCCCCCCCCCCCCNC1CC(=O)OC1C(OCCCC)C(=O)NC(CC(C)C)C1Cc2cccc(O)c2C(=O)O1 (centres unmarked) [IIIa-25-3],56%
6,CC(=O)Oc1cccc2c1C(=O)OC(C(CC(C)C)NC(=O)C(OC(C)=O)C1OC(=O)CC1NC(=O)c1ccc(C)cc1)C2 (centres unmarked) [IIIa-3-8],33%
7,CCOc1cccc2c1C(=O)OC(C(CC(C)C)NC(=O)C(O)C1OC(=O)CC1NC(=O)c1ccc(CCC(C)C)cc1)C2 (centres unmarked) [IIIa-5-38],33%
8,CCCCCCCCCCCCCCCCCC(=O)NC1CC(=O)OC1C(O)C(=O)NC(CC(C)C)C1Cc2cccc(OC(C)=O)c2C(=O)O1 (centres unmarked) [IIIa-4-3],33%
9,CC(=O)Oc1cccc2c1C(=O)OC(C(CC(C)C)NC(=O)C(O)C1OC(=O)CC1NC(=O)c1ccc(OCCC(C)C)cc1)C2 (centres unmarked) [IIIa-4-8],33%
10,CCOc1cccc2c1C(=O)OC(C(CC(C)C)NC(=O)C(O)C1OC(=O)CC1NC(=O)CCCCCCCCCO)C2 (centres unmarked) [IIIa-5-75],33%
11,CC(=O)Oc1cccc2c1C(=O)OC(C(CC(C)C)NC(=O)C(O)C1OC(=O)CC1NC(=O)c1ccc(C)cc1)C2 (centres unmarked) [IIIa-4-7],33%
12,CCOc1cccc2c1C(=O)OC(C(CC(C)C)NC(=O)C(O)C1OC(=O)CC1NC(=O)CCCCC(C)CC)C2 (centres unmarked) [IIIa-5-55],33%
13,CCOc1cccc2c1C(=O)OC(C(CC(C)C)NC(=O)C(O)C1OC(=O)CC1NC(=O)Cc1ccc3ccccc3c1)C2 (centres unmarked) [IIIa-5-62],33%
14,CCCCCCCCCCCCCCCCCCOc1cccc2c1C(=O)OC(C(CC(C)C)NC(=O)C(O)C1OC(=O)CC1N)C2 (centres unmarked) [IIIa-13-5],72%
15,CC(C)CC(NC(=O)C(O)C1OC(=O)CC1NC(=O)c1cccn1C)C1Cc2cccc(O)c2C(=O)O1 (centres unmarked) [IIIa-1-29],66%
16,CCCCCCCCCCCCCCCCCCOC(C(=O)NC(CC(C)C)C1Cc2cccc(O)c2C(=O)O1)C1OC(=O)CC1N (centres unmarked) [IIIa-16-3],56%
17,CCOc1cccc2c1C(=O)OC(C(CC(C)C)NC(=O)C(O)C1OC(=O)CC1NC(=O)c1cocc1C(=O)O)C2 (centres unmarked) [IIIa-5-59],44%
18,CCOc1cccc2c1C(=O)OC(C(CC(C)C)NC(=O)C(O)C1OC(=O)CC1NC(=O)c1cccn1C)C2 (centres unmarked) [IIIa-5-29],33%
19,CCOc1cccc2c1C(=O)OC(C(CC(C)C)NC(=O)C(O)C1OC(=O)CC1NC(=O)CC(C)OC(C)=O)C2 (centres unmarked) [IIIa-5-47],33%
20,CC(C)CC(NC(=O)C(O)C1OC(=O)CC1NC(=O)c1ccco1)C1Cc2cccc(O)c2C(=O)O1 (centres unmarked) [IIIa-1-22],66%
21,CC(C)CC(NC(=O)C(O)C1OC(=O)CC1NC(=O)c1cocc1C(=O)O)C1Cc2cccc(O)c2C(=O)O1 (centres unmarked) [IIIa-1-60],66%
22,CCOc1cccc2c1C(=O)OC(C(CC(C)C)NC(=O)C(O)C1OC(=O)CC1NC(=O)Cc1ccc3ccccc3c1C)C2 (centres unmarked) [IIIa-5-21],33%
23,CCCCCCCCCCCCCCCCCCOc1cccc2c1C(=O)OC(C(CC(C)C)NC(=O)C(O)C1OC(=O)CC1NC)C2 (centres unmarked) [IIIa-31-3],78%
24,CCOc1cccc2c1C(=O)OC(C(CC(C)C)NC(=O)C(OC(C)=O)C1OC(=O)CC1NC(=O)CC(C)C)C2 (centres unmarked) [IIIa-6-3],33%
25,CC(C)CC(NC(=O)C(O)C1OC(=O)CC1NCC(Cl)(Cl)Cl)C1Cc2cccc(O)c2C(=O)O1 (centres unmarked) [IIIa-18-12],94%

# Reference: patent US4393225A, “AI-77 Compounds and pharmaceutically acceptable salts thereof” (Asahi Kasei Kogyo Kabushiki Kaisha, priority 1979, dated 1983)
